Among the data in PMC7486443, “Generation of Phenothiazine with Potent Anti-TLK1 Activity for Prostate Cancer Therapy” (iScience, 2020) are remaining binding values, retold here.

Common to all, as to experiment: biochemical
Common to all, as to set-up: DiscoverX KINOMEscan scanMAX competition binding panel, single concentration, percent of control; remaining binding: dose or concentration left out as unconfirmed
Holding throughout (settings): KINOMEscan binding, percent of control; read-out: Table S4_SCANMAX REPORT - related to Fig. 1 / Percent Control

For experiment [1], the target named is ALK (Homo sapiens, UniProt Q9UM73).
The target of experiment [2] is T1, ARK5 (Homo sapiens, UniProt O60285).
T1 construct: gene NUAK1

The target of experiment [3] is CAMK1G (Homo sapiens, UniProt Q96NX5).
In experiment [4] the target is CAMKK2 (Homo sapiens, UniProt Q96RR4).
Experiment [5] addresses CSNK1A1L (Homo sapiens, UniProt Q8N752).
Experiment [6] has as its target DYRK1A (Homo sapiens, UniProt Q13627).
Experiment [7] deals with FRK (Homo sapiens, UniProt P42685).
The target of experiment [8] is T2, MLK1 (Homo sapiens, UniProt P80192).
T2 construct: gene MAP3K9

Experiment [9] has as its target T3, MLK2 (Homo sapiens, UniProt Q02779).
T3 construct: gene MAP3K10

Experiment [10] has as its target NEK10 (Homo sapiens, UniProt Q6ZWH5).
Experiment [11] concerns the target T4, PCTK2 (Homo sapiens, UniProt Q00537).
T4 construct: gene CDK17

Experiment [12] has as its target PDGFRB (Homo sapiens, UniProt P09619).
Experiment [13] addresses T5, PIK4CB (Homo sapiens, UniProt Q9UBF8).
T5 construct: gene PI4KB

In experiment [14] the target is PIM3 (Homo sapiens, UniProt Q86V86).
The target in experiment [15] is PKN2 (Homo sapiens, UniProt Q16513).
The target in experiment [16] is T6, PRP4 (Homo sapiens, UniProt Q13523).
T6 construct: gene PRPF4B

Experiment [17] has as its target T7, PYK2 (Homo sapiens, UniProt Q14289).
T7 construct: gene PTK2B

The target in experiment [18] is RIPK2 (Homo sapiens, UniProt O43353).
Experiment [19] has as its target T8, SNARK (Homo sapiens, UniProt Q9H093).
T8 construct: gene NUAK2

Sequence of NEK10 (Q6ZWH5 whole entry): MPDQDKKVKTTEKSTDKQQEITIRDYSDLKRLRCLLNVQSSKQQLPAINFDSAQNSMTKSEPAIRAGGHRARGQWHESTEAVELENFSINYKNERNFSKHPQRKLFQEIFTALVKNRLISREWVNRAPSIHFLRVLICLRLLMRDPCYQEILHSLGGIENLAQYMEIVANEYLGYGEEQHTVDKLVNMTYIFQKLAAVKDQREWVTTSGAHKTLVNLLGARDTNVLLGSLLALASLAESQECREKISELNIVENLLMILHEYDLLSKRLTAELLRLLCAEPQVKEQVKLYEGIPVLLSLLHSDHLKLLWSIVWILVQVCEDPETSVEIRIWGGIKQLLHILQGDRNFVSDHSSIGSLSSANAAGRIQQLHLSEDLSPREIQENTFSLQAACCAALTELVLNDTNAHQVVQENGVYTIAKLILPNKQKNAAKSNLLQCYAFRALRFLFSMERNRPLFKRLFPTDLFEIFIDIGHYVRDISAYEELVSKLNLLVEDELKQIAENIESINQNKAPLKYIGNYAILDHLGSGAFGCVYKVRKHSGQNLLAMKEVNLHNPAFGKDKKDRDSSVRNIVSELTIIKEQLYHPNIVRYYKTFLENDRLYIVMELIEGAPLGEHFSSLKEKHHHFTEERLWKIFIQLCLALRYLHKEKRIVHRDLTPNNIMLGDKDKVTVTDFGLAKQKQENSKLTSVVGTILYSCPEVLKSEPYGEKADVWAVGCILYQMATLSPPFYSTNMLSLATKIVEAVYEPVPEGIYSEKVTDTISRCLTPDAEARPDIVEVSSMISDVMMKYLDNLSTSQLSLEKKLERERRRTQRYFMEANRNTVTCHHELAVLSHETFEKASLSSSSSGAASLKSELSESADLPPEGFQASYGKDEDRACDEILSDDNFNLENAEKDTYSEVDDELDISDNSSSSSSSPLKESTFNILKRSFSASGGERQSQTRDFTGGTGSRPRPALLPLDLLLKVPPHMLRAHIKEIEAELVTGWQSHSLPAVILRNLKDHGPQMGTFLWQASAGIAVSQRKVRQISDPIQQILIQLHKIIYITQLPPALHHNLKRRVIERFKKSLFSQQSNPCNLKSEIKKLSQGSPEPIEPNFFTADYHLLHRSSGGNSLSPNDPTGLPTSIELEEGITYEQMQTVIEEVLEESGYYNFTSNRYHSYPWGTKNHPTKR
T5 sequence (Q9UBF8 whole entry): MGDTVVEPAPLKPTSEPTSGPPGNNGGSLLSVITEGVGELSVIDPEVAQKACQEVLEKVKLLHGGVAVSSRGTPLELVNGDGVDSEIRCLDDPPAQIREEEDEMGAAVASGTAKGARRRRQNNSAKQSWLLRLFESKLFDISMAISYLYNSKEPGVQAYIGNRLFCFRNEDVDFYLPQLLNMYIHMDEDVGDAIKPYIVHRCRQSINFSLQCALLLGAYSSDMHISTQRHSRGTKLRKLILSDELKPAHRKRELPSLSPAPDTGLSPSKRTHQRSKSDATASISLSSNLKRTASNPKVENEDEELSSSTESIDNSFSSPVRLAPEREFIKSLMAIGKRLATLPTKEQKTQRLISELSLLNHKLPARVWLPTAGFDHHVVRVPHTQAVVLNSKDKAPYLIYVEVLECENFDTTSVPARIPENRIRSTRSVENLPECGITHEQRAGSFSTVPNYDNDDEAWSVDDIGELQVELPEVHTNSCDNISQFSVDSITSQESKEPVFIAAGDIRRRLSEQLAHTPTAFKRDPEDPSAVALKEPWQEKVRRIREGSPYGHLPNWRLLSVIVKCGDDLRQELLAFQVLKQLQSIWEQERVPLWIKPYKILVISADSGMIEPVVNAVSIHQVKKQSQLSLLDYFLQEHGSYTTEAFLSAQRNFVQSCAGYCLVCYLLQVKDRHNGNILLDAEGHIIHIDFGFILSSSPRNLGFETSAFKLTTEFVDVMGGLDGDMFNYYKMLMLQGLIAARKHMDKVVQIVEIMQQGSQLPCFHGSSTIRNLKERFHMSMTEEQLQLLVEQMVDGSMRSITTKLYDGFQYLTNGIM
Sequence of CSNK1A1L (Q8N752 whole entry): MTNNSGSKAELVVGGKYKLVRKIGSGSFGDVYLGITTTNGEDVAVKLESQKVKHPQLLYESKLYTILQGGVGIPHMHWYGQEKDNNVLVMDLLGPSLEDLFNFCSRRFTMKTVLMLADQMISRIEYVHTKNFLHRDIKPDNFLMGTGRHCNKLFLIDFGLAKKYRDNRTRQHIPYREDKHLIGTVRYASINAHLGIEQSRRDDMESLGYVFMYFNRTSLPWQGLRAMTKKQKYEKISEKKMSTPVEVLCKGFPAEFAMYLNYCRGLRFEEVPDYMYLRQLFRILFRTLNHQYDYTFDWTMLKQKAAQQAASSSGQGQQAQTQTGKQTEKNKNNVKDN
T1 sequence (O60285 whole entry): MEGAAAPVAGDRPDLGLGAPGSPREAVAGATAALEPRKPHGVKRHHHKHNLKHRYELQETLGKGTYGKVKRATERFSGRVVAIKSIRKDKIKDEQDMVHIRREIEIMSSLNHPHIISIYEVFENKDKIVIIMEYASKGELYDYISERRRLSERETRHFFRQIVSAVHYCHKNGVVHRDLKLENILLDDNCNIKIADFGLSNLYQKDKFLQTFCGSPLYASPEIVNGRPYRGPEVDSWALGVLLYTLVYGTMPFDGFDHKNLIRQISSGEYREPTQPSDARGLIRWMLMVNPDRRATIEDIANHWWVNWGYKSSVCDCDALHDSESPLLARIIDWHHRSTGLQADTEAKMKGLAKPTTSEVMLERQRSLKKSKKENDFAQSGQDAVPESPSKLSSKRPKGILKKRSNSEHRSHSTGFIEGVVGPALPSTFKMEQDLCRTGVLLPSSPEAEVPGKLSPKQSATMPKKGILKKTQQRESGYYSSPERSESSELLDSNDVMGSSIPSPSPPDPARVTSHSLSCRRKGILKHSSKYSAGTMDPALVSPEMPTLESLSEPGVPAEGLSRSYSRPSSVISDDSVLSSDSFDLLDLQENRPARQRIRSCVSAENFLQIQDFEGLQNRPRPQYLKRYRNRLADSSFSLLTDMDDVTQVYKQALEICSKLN
Sequence of RIPK2 (O43353 whole entry): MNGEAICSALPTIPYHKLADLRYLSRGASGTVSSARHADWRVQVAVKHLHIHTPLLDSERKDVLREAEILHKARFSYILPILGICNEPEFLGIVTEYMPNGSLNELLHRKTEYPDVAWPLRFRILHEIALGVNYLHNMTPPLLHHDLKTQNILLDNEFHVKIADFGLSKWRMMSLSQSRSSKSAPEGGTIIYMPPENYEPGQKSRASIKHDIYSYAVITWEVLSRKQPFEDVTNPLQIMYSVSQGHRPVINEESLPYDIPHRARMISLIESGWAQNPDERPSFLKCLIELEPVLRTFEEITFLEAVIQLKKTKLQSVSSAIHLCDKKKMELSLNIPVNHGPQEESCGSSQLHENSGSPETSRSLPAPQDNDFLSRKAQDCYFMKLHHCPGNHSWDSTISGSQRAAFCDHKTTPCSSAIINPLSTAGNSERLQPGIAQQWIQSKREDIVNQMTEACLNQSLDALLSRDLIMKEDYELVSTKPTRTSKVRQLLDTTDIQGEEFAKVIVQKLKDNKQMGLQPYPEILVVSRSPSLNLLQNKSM
T8 sequence (Q9H093 whole entry): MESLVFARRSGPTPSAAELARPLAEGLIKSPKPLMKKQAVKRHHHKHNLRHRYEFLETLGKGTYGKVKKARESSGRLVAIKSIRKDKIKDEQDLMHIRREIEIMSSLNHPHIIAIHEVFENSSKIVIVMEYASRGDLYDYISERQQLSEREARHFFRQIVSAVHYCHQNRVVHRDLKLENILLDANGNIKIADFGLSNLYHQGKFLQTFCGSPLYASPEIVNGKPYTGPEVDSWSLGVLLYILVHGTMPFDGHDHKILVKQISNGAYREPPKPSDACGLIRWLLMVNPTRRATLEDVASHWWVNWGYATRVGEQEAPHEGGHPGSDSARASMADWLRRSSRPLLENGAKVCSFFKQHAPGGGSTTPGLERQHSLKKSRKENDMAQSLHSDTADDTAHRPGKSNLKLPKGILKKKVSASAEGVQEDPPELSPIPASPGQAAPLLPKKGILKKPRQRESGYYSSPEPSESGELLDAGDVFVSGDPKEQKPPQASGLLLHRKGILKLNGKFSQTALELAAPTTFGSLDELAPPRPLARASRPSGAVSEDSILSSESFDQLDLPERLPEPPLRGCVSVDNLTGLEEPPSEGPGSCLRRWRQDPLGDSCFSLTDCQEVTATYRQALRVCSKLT
T4 sequence (Q00537 whole entry): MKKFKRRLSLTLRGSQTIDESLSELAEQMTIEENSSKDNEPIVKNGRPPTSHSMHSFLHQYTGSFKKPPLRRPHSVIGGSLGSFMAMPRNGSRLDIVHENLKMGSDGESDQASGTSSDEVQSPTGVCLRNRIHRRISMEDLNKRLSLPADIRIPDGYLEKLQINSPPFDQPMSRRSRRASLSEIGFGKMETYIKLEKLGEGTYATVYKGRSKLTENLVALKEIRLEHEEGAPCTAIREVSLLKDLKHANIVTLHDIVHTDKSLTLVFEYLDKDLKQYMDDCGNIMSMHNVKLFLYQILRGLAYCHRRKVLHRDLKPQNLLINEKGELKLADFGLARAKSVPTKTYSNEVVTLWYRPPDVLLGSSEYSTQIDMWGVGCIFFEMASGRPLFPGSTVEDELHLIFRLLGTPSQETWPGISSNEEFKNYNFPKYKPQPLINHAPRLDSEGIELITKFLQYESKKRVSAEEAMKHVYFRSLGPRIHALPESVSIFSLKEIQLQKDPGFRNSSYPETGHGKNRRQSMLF

As for `c1ccc2c(c1)Sc1ccccc1N2CCN1CCOCC1` [J54], the remaining binding was determined as 59% in experiment [1]; 79% in [2]; 100% in experiment [3]; 100% in experiment [4]; 100% in [5]; 80% in [6]. The remaining binding in [7] turned out to be 100%; in experiment [8], 97%; in experiment [9], 97%; in experiment [10], 97%; in [11] it was 100%; in experiment [12] it was 100%. Moreover, the remaining binding came out at 100% in experiment [13]; 47% in experiment [14]; 69% in experiment [15]; 74% in experiment [16]; 100% in experiment [17]; 100% in experiment [18]. Besides, the remaining binding in experiment [19] came to 99%.
